Measurements: US20050187288A1, “Beta-lapachone and methods of treating cancer” (priority 2004, published 2005)
Like-named read-outs stand apart in the source and are kept apart here.

What was measured:
[1] = Study 4B: cardiovascular, pulmonary study in anesthetized dogs; assay type: in vivo
Method: In Study No. 4B, adult female Beagle dogs (one male in control group) were randomized into three study groups (3 animals/group) as shown in Table 17.
For measurement of cardiovascular function, a lead II ECG was obtained with subdermal needle electrodes and an ECG signal conditioner. Heart rate (HR) was measured with a pulse rate tachometer. The right femoral artery was cannulated with a catheter connected to a pressure transducer and pressure processor for recording mean, systolic and diastolic arterial blood pressure (BP). The left femoral artery was exposed by a flank incision and a probe (2.5 mm i.d.) connected to an electromagnetic flowmeter was placed around the artery for measurement of blood flow (BF). […] For measurement of pulmonary function, a 5.0 mm endotracheal tube connected to a pneumotachograph recorded integrated flow to yield a continuous recording of respiratory rate (RR). Intrapleural pressure was obtained from an esophageal balloon placed in the lower third of the esophagus. Transpulmonary pressure, the difference between thoracic (i.e. the external end of the endotracheal tube) and pleural pressure, was measured with a differential pressure transducer. Measurements of respiratory flow and transpulmonary pressure were used to compute total lung resistance (RL) and dynamic compliance (CDYN).
All parameters were measured and recorded immediately before (0 minute) and 5, 10, 30, 60, 90 and 120 minutes after start of the infusion. The mean±SEM value and the percentage relative to pretreatment values at each observation time point after dosing were calculated, and Dunnett's test was applied for comparison between vehicle control group and test substance treated group at the relative observation time interval. Differences were considered significant at p<0.05 level.

human PBMC = test: MTT cytotoxicity on PBMC; assay type: cell-based; settings: 0.5, 2, 4, and 8 μM for 24 h
Method: Proliferating PBMC were generated by 72 h incubation with phytohemagglutinin (PHA) at 2 μg/mL.

[2] = Pharmacokinetic data from toxicology study in dogs, one-hour intravenous infusion; assay type: in vivo; settings: both sexes, dog
Method: In this study, two dogs (one male, one female) were administered β-lapachone intravenously in the HPBCD formulation over one hour. The animals received escalating doses of 5, 15, 30 and 45 mg/kg, with three to four days between doses. The mean response of the two dogs is shown at each dose level. […] Doses up to and including 30 mg/kg produced no toxicity.

G480 lung cancer cells = test: Colony formation assay, single agents and combination; assay type: cell-based
From the text: Control plates received the same volume of DMSO alone. […] Treated wells were presented as percentage of control. Data were presented as an average (+SEM) from three independent experiments.

CAOV-3 = test: cells; settings: Homo sapiens, Caov-3, read-out: LC50 (Replicate Results), CAOV-3, 4 hour exposure, colonies after 14-21 days
Method: (§3) Control plates received the same volume of DMSO alone. After a 4 hour exposure the drug was carefully removed, and drug-free medium could be added. […] Colonies of greater than 50 cells were scored as survivors. Cells were maintained at 37° C. in 5% CO2 in complete humidity.

[3] = test system: DU145 human prostate cancer; test: Human prostate cancer xenograft model; assay type: in vivo, mice
Method: Tumors were measured throughout treatment and the post-treatment observation period. […] Tumor nodules were measured during the treatment period (Days 21-43) and at the end of observation (Day 56). Dose-related inhibition of tumor growth is seen, with little tumor growth following completion of treatment. […] Tumor nodules were measured pre-treatment (“Pre-Tx”), at the end of the 30-day treatment period (“Post-Tx”) and at the conclusion of the post treatment observation period 14 days following termination of treatment (“Post-Exp't”).

MCF-7 [4] = settings: human, 4 h
Method: as §3

HCT-116 = test: cells; settings: Homo sapiens, HCT-116, read-out: LC50 (Replicate Results), HCT-116, 4 hour exposure, colonies after 14-21 days
Method: as §3
Control plates received the same volume of DMSO alone. After a 4 hour exposure the drug was carefully removed, and drug-free medium was added. […] Colonies of greater than 50 cells were scored as survivors. Cells were maintained at 37° C. in 5% CO2 in complete humidity. Each “Replicate Result” represents the result of a separate experiment.

E2F-1 = E2F-1 protein expression by Western blot in Paca-2 cells; assay type: cell-based, human; settings: 0.5 hours exposure
Method: Cells were harvested and whole cell lysates were prepared and resolved by SDS/PAGE, then Western blots were prepared using E2F-1 antibody obtained from Santa Cruz Biotechnology (Santa Cruz, Calif.) and an enhanced chemiluminescence assay system (Amersham Pharmacia).

in vivo = settings: Sprague-Dawley, rat, 10 mg/kg, AUC* (estimated from toxicology experiments)
[5] = Pharmacokinetic profile of intraperitoneal dosing in mice, Lipiodol formulation; settings: IP 150 mg/m^2 in Lipiodol
Method: A study was performed to determine the pharmacokinetic profile of intraperitoneal (IP) dosing in mice.

MCF-7 [6] = test: cells; settings: Homo sapiens, MCF7, read-out: LC50 (Replicate Results), MCF-7, 4 hour exposure, colonies after 14-21 days
Method: as §3

[7] = Study 5B: four week intravenous toxicity study in rats; settings: for creatine kinase elevation: Day 1
From the text: Blood samples were taken for hematology and clinical chemistry (Days 1, 15 and 24) and coagulation (Day 24 only) and clinical chemistry evaluation.

PaCa-2 = test: cells
From the text: (§1) Control plates received the same volume of DMSO alone.
(§2) Control plates receive the same volume of DMSO alone. […] Each “Replicate Result” represents the result of a separate experiment.

BxPC-3 = test: cells; settings: Homo sapiens
From the text: as §1, §2

SK-OV-3 = test: cells; settings: Homo sapiens, SK-OV-3, read-out: LC50 (Replicate Results), SK-OV-3, 4 hour exposure, colonies after 14-21 days
Method: as §3

[8] = 40 mg/kg, by the end of the infusion
[9] = 4 μM for 4 hours, vs carrier alone

## CC1(C)CCC2=C(O1)c1ccccc1C(=O)C2=O [β-lapachone, 3,4-dihydro-2,2-dimethyl-2H-naphtho [1,2-b]pyran-5,6-dione]
[1]; 20 mg/kg, at 60 minutes
  reduction of tidal volume: 16%
[1]; 40 mg/kg
  dynamic compliance: approximately 52 % of normal
  increase of pulmonary resistance: approximately 50%
[1]; [8]
  decrease in tidal volume: 41%
  respiratory rate: four-fold increase
[1]; up to and including 40 mg/kg over 1 hour
  effects on cardiovascular function (BP, blood flow, heart rate, ECG incl. QTc): no significant effects on cardiovascular function
Human PBMC
  cytotoxicity to fresh or proliferating PBMC growth: No cytotoxicity
[2]; in vivo, 5 mg/kg
  AUC: 13600 ng·h/mL
[2]; plasma, intravenous, across the dose range, read-out: terminal half-life (converted)
  half-life: ~16 h
[2]; plasma, iv, 5 mg/kg, 60 min infusion
  Cmax: 750 ng/mL
[2]; plasma, iv, 5 mg/kg, 60 min infusion, mean of two dogs, read-out: AUC
  AUC: 13600 ng·h/mL
[2]; plasma, iv, 5 mg/kg, 60 min infusion, read-out: T1/2
  half-life: ~16 h
[2]; plasma, iv, 15 mg/kg, 60 min infusion
  Cmax: 1150 ng/mL
[2]; plasma, iv, 15 mg/kg, 60 min infusion, mean of two dogs, read-out: AUC
  AUC: 20200 ng·h/mL
[2]; plasma, iv, 15 mg/kg, 60 min infusion, read-out: T1/2
  half-life: ~16 h
[2]; plasma, iv, 30 mg/kg, 60 min infusion
  Cmax: 1480 ng/mL
[2]; plasma, iv, 30 mg/kg, 60 min infusion, mean of two dogs, read-out: AUC
  AUC: 26000 ng·h/mL
[2]; plasma, iv, 30 mg/kg, 60 min infusion, read-out: T1/2
  half-life: ~16 h
G480 lung cancer cells; [9]
  cell death: 68%
  survival of cells: 32%
G480 lung cancer cells; G480, β-lapachone 4 μM, 4 hours, average (SEM) of three experiments
  Colonies (percent control): 32 (0.3) percent control
CAOV-3
  CC50: 1560 nM
[3]; 100 mg/kg in Lipiodol IP q3d, 30-day treatment
  tumor growth: greater suppression of tumor growth
[3]; 25 and 50 mg/kg in Lipiodol IP q3d
  tumor growth: inhibited tumor growth in a dose-dependent manner
MCF-7 [4]
  CC50: 1560 nM
HCT-116
  CC50: 2290 nM
E2F-1
  lowest concentration tested, at which E2F-1 protein is induced: 0.5 µM
In vivo
  AUC: 2640 ng·h/mL
[5]
  peak plasma level: approximately 8 μM
  time at which peak plasma levels were achieved: within one-half hour
MCF-7 [6]
  CC50: 1450 nM
[7]; 30 mg/kg dose group
  mortality and clinical signs: No mortality or clinical signs of toxicity
[7]; 30 mg/kg
  creatine kinase elevation: 2 fold upper limit of normal
[7]; 45 mg/kg
  creatine kinase elevation: 4 fold upper limit of normal
[7]; high dose group (45 mg/kg), Day 15, controls 2.1%
  reticulocyte count: 4.1%
PaCa-2; Homo sapiens, PaCa-2, read-out: LC50 (Replicate Results)
  CC50: 1680 nM
PaCa-2; Homo sapiens, PaCa-2, read-out: LC50 (Replicate Results), PaCa-2, 4 hour exposure, colonies after 14-21 days
  CC50: 1680 nM
PaCa-2; human, 4 h
  CC50: 1520 nM
BxPC-3; BXPC-3, read-out: LC50 (Replicate Results)
  CC50: 1890 nM
BxPC-3; BXPC-3, read-out: LC50 (Replicate Results), BxPC-3, 4 hour exposure, colonies after 14-21 days
  CC50: 1890 nM
SK-OV-3
  CC50: 1180 nM
